Patent US20240415808A1, “Dosage Regimen for Fexuprazan Injection Composition” (Daewoong Pharmaceutical Co., Ltd., priority 2021, published 2024)

Tested on: indomethacin-induced bleeding gastric ulcer
Experiment: indomethacin-induced bleeding gastric ulcer model using male rats
Assay type: in vivo, rat
Settings: 1 mg/kg single dose tail vein, mean ± SD
Experimental: In order to evaluate the efficacy of fexuprazan against bleeding gastric ulcers, an indomethacin-induced bleeding gastric ulcer model using male rats was used.
Specifically, the previously prepared 1-(5-(2,4-difluorophenyl)-1-((3-fluorophenyl)sulfonyl)-4-methoxy-1H-pyrrol-3-yl)-N-methylmethanamine (hereinafter referred to as ‘fexuprazan’) hydrochloride was dissolved in a solution containing 30 wt. % of polyethylene glycol (Polyethylene Glycol 400) polymer in physiological saline. The concentration was adjusted so that 0, 0.1, 0.5, 1, 2 mg/kg based on fexuprazan weight could be administered to each test animal in a liquid volume of 1 mL/kg, and then each test animal was administered through the tail vein as a single dose. In addition, 1 mg/kg of esomeprazole magnesium trihydrate, which is a positive control, based on esomeprazole weight was administered as a single dose through the tail vein in test animals. After 30 minutes, 80 mg/kg of indomethacin was orally administered as a single dose to each test animal to induce gastric bleeding and ulceration. An autopsy was performed 5 hours after administration of indomethacin, and the stomach was removed. Then, the ulcer index (%) was measured using an image program (Leica Application Suite V4), and gastric hemorrhage and erosion state were evaluated through histopathological examination.

COc1ccc2nc([S@@+]([O-])Cc3ncc(C)c(OC)c3C)[nH]c2c1 [Esomeprazole, esomeprazole magnesium trihydrate, reference compound]
Ulcer index (%) (30 min before indomethacin 80 mg/kg oral, autopsy 5 h): 6.1 ± 2.6 %
Gastric erosion state (histopathological examination): 2.0 ± 1.8
Gastric hemorrhage state (histopathological examination): 1.3 ± 1.6^
